{
  "source": "patent US20240018470A1",
  "about": "“METHOD OF MANIPULATING PLURIPOTENCY IN CELLS” (YALE UNIVERSITY, priority 2022, published 2024)",
  "key": {"Xenopus embryos [1]": {"test_system": "Xenopus embryos", "assay": "Organ situs (left-right patterning) scoring in stage 45 tadpoles", "format": "in vivo, Xenopus tropicalis", "details": "blastula/gastrula embryos treated stage 8 to stage 12, 50 nM", "description": "Stage 45 Xenopus embryos were paralyzed with benzocaine or tricaine and scored with a light stereomicroscope. Cardiac looping was determined by position of the outflow tract; D-loop: rightward, L-loop: leftward; A-loop: midline. Normal intestinal looping was scored as counter-clockwise rotation of the gut, while abnormal intestinal looping was scored as completely inverse gut rotation (clockwise) or complete lack of looping (un-looped). While a completely inverted gut rotation is clearly an abnormality of LR patterning, an unlooped gut is less clear so the present study only considered an unlooped gut as abnormal situs when combined with abnormal placement (left-sided or midline) of the gall bladder. To quantify total abnormal organ situs, each tadpole was counted only once, regardless of whether multiple organs were affected.\n(§1) Normal embryonic medium is 1/9× modified Ringer's (MR) containing 11 mM NaCl, 0.2 mM KCl, 0.2 mM CaCl2), 0.1 mM Mg2Cl and 0.55 mM HEPES. To allow Ergtoxin to penetrate the embryos, the present study manually removed the vitelline envelope of stage 8 embryos and incubated embryos in 1/9×MR containing 50 nM Ergtoxin (Alomone STE-450) until stage 12. Embryos were then transferred back into 1/9×MR lacking Ergtoxin to develop until stage 45 in order to score organ situs. Barium chloride was applied into the medium at 20 mM and embryos were thoroughly rinsed in 1/9×MR after each incubation period for further development in Ba2+-free medium. For extracellular K^+ manipulations, the KCl concentration in 1/9×MR was modified from 0.2 mM (normal) to 20 mM (high) or 0 mM (low). The ionophore valinomycin (ACROS) and L-type VGCC blocker Nifedipine (ACROS) were diluted in DMSO as stock solutions and applied to embryos in 1/9×MR at 2 nM and 10 μM respectively. Treatments performed during gastrulation were applied from stage 8 through stage 12, and embryos were then rinsed thoroughly and returned into 1/9×MR. For rapamycin, the present study created a standard stock solution of 50 mg/ml in DMSO. The stock solution was diluted 1:2500 in the appropriate embryonic media (final 20 μg/ml). Embryos were treated at stage 7 and then fixed at stage 11 for in situ hybridization.\n(§2) In experiments where embryos were evaluated for phenotypes and scored (gastrulation, left-right patterning, in situ hybridizations) the present study carried out three to five biological replicates and Fisher's exact test to evaluate statistical significance. The animal cap experiment was performed twice with a total score of four to eight animal caps per experiment. For the calcium transient analyses, data was collected from three to five embryos in each experiment in three independent experiments, and statistical analyses on GCaMP/mCherry fluorescence intensity as well as Ca^2+ transient area were performed using student's t-test. For whole cell electrophysiological recordings, three to five embryos (two cells each) were examined for their membrane potential and statistical significance was tested by student's t-test. Graphs were designed using GraphPad Prism software. Models were created with BioRender.com."}, "Xenopus embryos [2]": {"test_system": "Xenopus embryos", "assay": "Gastrulation scoring (incomplete blastopore closure) in treated or kcnh6-depleted embryos", "format": "in vivo, Xenopus tropicalis", "details": "blastula/gastrula embryos treated stage 8 to stage 12, 50 nM", "description": "All injections of Xenopus embryos were performed at the one-cell stage using a fine glass needle and Picospritzer system. A kcnh6 translation blocking (kcnh6 MO, 5′-[…]-3′, SEQ ID NO:1) and a scrambled morpholino oligonucleotide were obtained from Gene Tools LLC and injected at 10 ng to deplete kcnh6 or as a control, respectively. CRISPR sgRNAs for kcnh6 targeted either exon 3 or exon 4 based on the v7.1 gene model of the X. tropicalis genome (CRex3: 5′-[…]-3′, SEQ ID NO:2 and CRex4: 5′-[…]-3′, SEQ ID NO:3). CRISPR sgRNAs for cacna1c (5′-[…]-3′, SEQ ID NO:4) and cacna1g (5′-[…]-3′, SEQ ID NO:5) were designed from the v7.1 model of the Xenopus tropicalis genome. For F0 CRISPR knockdown, embryos were injected with 1.5 ng Cas9 Protein (PNA-Bio) and 400 pg of targeting sgRNA and raised to desired stages. […] Full length human KCNH6 (NM 030779.3; cloned in pCS107), GCaMP6 (subcloned in pCSDest) and mCherry cDNAs (Addgene #34935; in pCS2+), were used to generate capped mRNAs in vitro by first linearizing with appropriate restriction enzymes and then transcribing with the mMessage machine kit (Ambion). mRNAs were injected at 3 pg (human KCNH6), 150 pg (GCaMP6) and 150 pg (mCherry) per embryo. Embryos were raised at 21° C. to allow time for sufficient expression levels at blastula/gastrula stages.\nas §1, §2"}, "hESCs [3]": {"test_system": "hESCs", "assay": "hESC BMP4-induced differentiation, pluripotency marker immunofluorescence", "format": "cell-based, human", "details": "BMP4 50 ng/ml, at 12 hours; similar trend in NANOG", "description": "(§3) Cells were dissociated with accutase and seeded onto 8 well imaging slides (ibidi 80826) at a density of 4-6×10^4/cm^2. Cells were seeded and maintained in Rock-inhibitor Y27672 (MCE; 10 μM) to increase survival and the uniformity of response. Treatments with 1 mM BaCl2 or 10 or 25 nM Ergtoxin or 100 nM rapamycin were initiated 4 hours after seeding. Differentiation was initiated 24 hours after seeding where indicated. To initiate differentiation, the media was replenished with/without BaCl2 or Ergtoxin and treated with the indicated growth factors or small molecules. Cells were incubated for the indicated times without media change before fixation.\nCells were fixed for 30 min in 4% paraformaldehyde, rinsed twice with DPBS (without Ca^2+ and Mg^2+, denoted DPBS^−/−), and blocked for 30 min at room temperature. The blocking solution contained 3% donkey serum and 0.1% Triton X-100 in 1×DPBS^−/−. After blocking, the cells were incubated with primary antibodies at room temperature for 2 hours. Antibodies and concentrations are listed below. […]\nImages were acquired using a 20×, NA 0.75 objective on an Olympus IX83 inverted epifluorescence microscope or an Olympus/Andor spinning disk confocal microscope. […] This segmentation was cleaned (to remove debris and to separate merged cells) and mean nuclear protein intensities as well as standard errors were quantified using a custom MATLAB code. […]"}, "hESCs [4]": {"test_system": "hESCs", "assay": "hESC pluripotency marker qPCR", "format": "cell-based, human", "details": "25 nM; OCT4 and SOX2 by day 2, all three genes on day 5", "description": "hESCs were grown in mTeSR1 (STEMCELL Technologies) in tissue culture dishes coated with Matrigel (Corning; 1:200 in DMEM/F12) and kept at 37° C., 5% CO2. The cell lines used were ESI017 (ESIBIO) and H9. Cells were routinely passaged using dispase (STEMCELL Technologies) and tested for mycoplasma contamination and found negative. For rapamycin experiments, cells were grown in MEF-conditioned HUESM media supplemented with 20 ng/ml bFGF with or without 100 nM rapamycin, which the present study found to increase the survival of rapamycin treated cells compared to cells grown in mTeSR1.\nFor qPCR, hESCs were grown with or without ErgToxin (25 nM) for the indicated times. RNA collection and DNase treatment were performed using the RNAqueous®-Micro Total RNA Isolation Kit (AM1931) and cDNA was synthesized with the SuperScript Vilo cDNA Synthesis Kit (Fisher Scientific 11754-050). qPCR measurements were collected using SYBR Green reagent (LifeTech-4367659) on a Step OnePlus instrument (Applied Biosciences). Data were normalized using the housekeeping gene GAPDH. Primers for qPCR were: OCT4: 5′-[…]-3′ (SEQ ID NO:12), 5′-[…]-3′ (SEQ ID NO:13), SOX2: 5′-[…]-3′ (SEQ ID NO:14), 5′-[…]-3′ (SEQ ID NO:15), NANOG: 5′-[…]-3′ (SEQ ID NO:16), 5′-[…]-3′ (SEQ ID NO:17), GAPDH: 5′-[…]-3′ (SEQ ID NO:18), 5′-[…]-3′ (SEQ ID NO:19)."}, "hESCs [5]": {"test_system": "hESCs", "assay": "hESC pluripotency marker immunofluorescence", "format": "cell-based, human", "description": "hESCs were grown in mTeSR1 ([…] Technologies) in tissue culture dishes coated with Matrigel (Corning; 1:200 in DMEM/F12) and kept at 37° C., 5% CO2. The cell lines used were ESI017 (ESIBIO) and H9.\nas §3\nCells were fixed for 30 min in 4% paraformaldehyde, rinsed twice with DPBS (without Ca^2+ and Mg^2+, denoted DPBS^−/−), and blocked for 30 min at room temperature. The blocking solution contained 3% donkey serum and 0.1% Triton X-100 in 1×DPBS^−/−. After blocking, the cells were incubated with primary antibodies at room temperature for 2 hours. Antibodies and concentrations are listed below. Cells were washed three times with DPBST (1×DPBS^−/− with Tween 20) and incubated with secondary antibodies (AlexaFluor 488 A21206, AlexaFluor 555 A31570 and A21432, and AlexaFluor 647 A31571, Thermo Fisher; 1:500) and DAPI for 30 min at room temperature. After secondary antibody incubation, samples were washed in DPBST and then DPBS at room temperature.\nImages were acquired using a 20×, NA 0.75 objective on an Olympus IX83 inverted epifluorescence microscope or an Olympus/Andor spinning disk confocal microscope. Cell segmentation was performed using ilastik software. This segmentation was cleaned (to remove debris and to separate merged cells) and mean nuclear protein intensities as well as standard errors were quantified using a custom MATLAB code. Nuclear intensities were normalized by DAPI to correct for intensity variation due to optics. […]"}},
  "note": "No end group written: not given here.",
  "data": [
    {"substance": "Ergtoxin: a scorpion peptide that specifically acts as a pore blocker of the KCNH channel family (Alomone STE-450) (DRDSCVDKSRCAKYGYYQECQDCCKNAGHNGGTCMFFKCKCA; ends and bridges not checked; cysteine pairing not given here; UniProt Q86QT3 21-62, looked up)", "values": [
      {"measurement": "LR defects", "setting": "Xenopus embryos [1]", "result": "identical gastrulation and LR defects"},
      {"measurement": "gastrulation defects", "setting": "Xenopus embryos [2]", "result": "identical gastrulation and LR defects"},
      {"measurement": "downregulation of pluripotency markers such as SOX2", "setting": "hESCs [3]", "result": "significant delay"},
      {"measurement": "OCT4, SOX2 and NANOG transcript level", "setting": "hESCs [4]", "result": "upregulation of these genes at the transcript level"},
      {"measurement": "effect on pluripotency markers in the presence of rapamycin", "setting": "hESCs [5]; 25 nM Ergtoxin with 100 nM rapamycin", "result": "no effect"},
      {"measurement": "pluripotency markers OCT4 and SOX2", "setting": "hESCs [5]; hESCs grown for two days, 25 nM Ergtoxin or 1 mM Barium, immunostaining and qPCR", "result": "modest but significant elevation"}
    ]}
  ]
}
